Measured values from US10550091B2, “1,4,5-substituted 1,2,3-triazole analogues as antagonists of the pregnane X receptor” (ST. JUDE CHILDREN'S RESEARCH HOSPITAL, priority 2016, dated 2020).
Like-named read-outs stand apart in the source and are kept apart here.

What was measured:
[1] = biological target: human peroxisome proliferator-activated receptor gamma (PPARγ) (Homo sapiens, UniProt P37231); experiment: human peroxisome proliferator-activated receptor gamma (PPARγ) transactivation assay; assay type: cell-based
Experimental: Cells were maintained by following manufacturer's instruction. Briefly, PPARγ cells were maintained in matrigel-coated tissue culture flasks in DMEM supplemented with 10% dialyzed FBS, 0.1 mM non-essential amino acids, 1 mM sodium pyruvate, 25 mM HEPES, 100 μg/ml of hygromycin B, 500 μg/ml of geneticin, 100 units/ml penicillin and 100 μg/ml streptomycin. […] Assay medium containing DMSO without cells serves as background control.

hPXR [2] = biological target: T1, hPXR (Homo sapiens (Human), UniProt O75469); experiment: hPXR transactivation assays (agonistic and antagonistic), HepG2 cells with CYP3A4-luciferase reporter; details: 24 h, NA = not active; for IC50: read-out: IC50 (antag), antagonistic assay, combined with 5 μM rifampicin; for EC50: read-out: EC50 (agon), agonistic assay, compound alone
Experimental: (§1) The hPXR transactivation assays (PXR agonistic and antagonistic assays) were performed in the HepG2 cells stably expressing FLAG-hPXR and CYP3A4-luciferase reporter. […] The luminescence signal was detected using an Envision plate reader (PerkinElmer Life Sciences).

[3] = biological target: human retinoid X receptor beta (hRXRβ) (Homo sapiens, UniProt P28702); experiment: human retinoid X receptor beta (hRXRβ) transactivation assay; assay type: cell-based
Experimental: Cells were maintained by following manufacturer's instruction. Briefly, RXRβ cells were maintained in DMEM supplemented with 10% dialyzed FBS, 0.1 mM non-essential amino acids, 25 mM HEPES, 100 μg/ml of hygromycin B, 100 μg/ml of zeocin, 100 units/ml penicillin and 100 μg/ml streptomycin.

[4] = biological target: human glucocorticoid receptor (hGR) (Homo sapiens, UniProt P04150); experiment: human glucocorticoid receptor (hGR) transactivation assay; assay type: cell-based; details: Anta = compound exhibited antagonism; read-out: GR (Anta)
hPXR [5] = biological target: T1, hPXR
Experimental: as §1

HepG2 cells = experiment: HepG2 cytotoxicity assay (CellTiter Glo); assay type: cell-based; details: Homo sapiens, HepG2, 72 h, read-out: IC50 (cyto)
Text: The luminescence signal was detected using an Envision plate reader (PerkinElmer Life Sciences).

[6] = Anta = compound exhibited antagonism, read-out: PPARγ (Anta)

Sequence of human peroxisome proliferator-activated receptor gamma (PPARγ) (P37231 whole entry, looked up): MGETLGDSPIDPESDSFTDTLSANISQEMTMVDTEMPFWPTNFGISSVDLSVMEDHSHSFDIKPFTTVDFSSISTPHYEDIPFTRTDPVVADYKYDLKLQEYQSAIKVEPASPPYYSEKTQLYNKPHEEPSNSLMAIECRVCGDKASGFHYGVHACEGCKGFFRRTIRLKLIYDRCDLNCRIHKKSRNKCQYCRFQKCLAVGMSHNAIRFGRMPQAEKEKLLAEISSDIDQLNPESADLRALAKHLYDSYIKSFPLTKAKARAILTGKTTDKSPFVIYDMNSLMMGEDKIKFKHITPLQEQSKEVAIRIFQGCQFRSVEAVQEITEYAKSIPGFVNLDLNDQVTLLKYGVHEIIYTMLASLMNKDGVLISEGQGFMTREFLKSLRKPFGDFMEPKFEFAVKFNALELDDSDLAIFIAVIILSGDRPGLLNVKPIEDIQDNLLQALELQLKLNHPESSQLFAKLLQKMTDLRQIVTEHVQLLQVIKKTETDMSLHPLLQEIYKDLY
T1 sequence (O75469 whole entry): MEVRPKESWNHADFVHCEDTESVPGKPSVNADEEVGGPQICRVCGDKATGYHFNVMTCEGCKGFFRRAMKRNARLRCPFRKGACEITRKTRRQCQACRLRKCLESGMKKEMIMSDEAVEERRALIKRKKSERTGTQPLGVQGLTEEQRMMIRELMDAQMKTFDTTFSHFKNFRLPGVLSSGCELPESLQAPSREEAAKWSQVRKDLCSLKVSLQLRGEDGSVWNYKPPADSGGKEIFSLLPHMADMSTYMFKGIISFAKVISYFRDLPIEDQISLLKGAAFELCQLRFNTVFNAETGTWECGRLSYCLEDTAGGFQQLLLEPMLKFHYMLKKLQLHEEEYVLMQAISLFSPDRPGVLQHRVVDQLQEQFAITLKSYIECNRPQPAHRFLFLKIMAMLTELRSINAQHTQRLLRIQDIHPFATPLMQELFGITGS
Sequence of human retinoid X receptor beta (hRXRβ) (P28702 whole entry, looked up): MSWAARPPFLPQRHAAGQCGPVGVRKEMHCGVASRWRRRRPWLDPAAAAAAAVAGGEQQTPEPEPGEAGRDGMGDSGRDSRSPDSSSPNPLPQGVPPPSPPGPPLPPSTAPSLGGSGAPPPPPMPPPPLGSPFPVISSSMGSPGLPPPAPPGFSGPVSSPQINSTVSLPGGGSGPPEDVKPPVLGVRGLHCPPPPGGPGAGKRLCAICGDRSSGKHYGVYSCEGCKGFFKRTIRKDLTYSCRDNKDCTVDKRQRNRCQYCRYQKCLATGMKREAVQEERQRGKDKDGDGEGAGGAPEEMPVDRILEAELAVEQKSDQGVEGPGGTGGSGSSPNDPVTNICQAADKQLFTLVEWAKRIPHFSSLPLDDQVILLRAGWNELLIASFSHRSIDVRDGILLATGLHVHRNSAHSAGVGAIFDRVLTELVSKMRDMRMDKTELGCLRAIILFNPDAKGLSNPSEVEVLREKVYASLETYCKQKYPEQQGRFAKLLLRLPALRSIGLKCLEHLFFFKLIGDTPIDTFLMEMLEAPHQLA
Sequence of human glucocorticoid receptor (hGR) (P04150 whole entry, looked up): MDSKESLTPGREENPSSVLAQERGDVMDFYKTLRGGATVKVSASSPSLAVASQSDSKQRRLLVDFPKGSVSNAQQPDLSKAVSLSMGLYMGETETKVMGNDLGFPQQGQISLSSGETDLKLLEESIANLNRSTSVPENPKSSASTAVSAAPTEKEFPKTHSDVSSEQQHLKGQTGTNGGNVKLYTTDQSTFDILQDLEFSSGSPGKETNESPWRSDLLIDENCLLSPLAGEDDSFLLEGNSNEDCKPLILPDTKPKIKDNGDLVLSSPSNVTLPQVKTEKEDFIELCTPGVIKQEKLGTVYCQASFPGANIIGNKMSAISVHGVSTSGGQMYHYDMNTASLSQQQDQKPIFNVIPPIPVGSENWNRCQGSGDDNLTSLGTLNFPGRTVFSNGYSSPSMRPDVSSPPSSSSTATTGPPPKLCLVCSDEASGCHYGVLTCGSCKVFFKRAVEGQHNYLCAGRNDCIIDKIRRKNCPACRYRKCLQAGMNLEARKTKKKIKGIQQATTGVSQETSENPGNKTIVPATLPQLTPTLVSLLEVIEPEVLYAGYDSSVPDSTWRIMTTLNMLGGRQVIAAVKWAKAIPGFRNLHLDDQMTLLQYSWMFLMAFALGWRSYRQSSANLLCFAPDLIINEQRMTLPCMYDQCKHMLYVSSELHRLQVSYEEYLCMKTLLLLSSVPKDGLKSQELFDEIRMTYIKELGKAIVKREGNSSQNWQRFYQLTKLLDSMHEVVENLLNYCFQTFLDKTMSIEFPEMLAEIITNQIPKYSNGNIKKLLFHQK

Molecule `O=C(Nc1ccccc1)c1cc([N+](=O)[O-])ccc1Cl` [GW9662, reference compound] has an IC50 ([1]; PPARγ antagonistic assay, 100 nM rosiglitazone, read-out: IC50) of 0.241 µM.
Work on `COc1ccc(C)cc1-n1nnc(S(=O)(=O)c2ccc(C(C)C)cc2)c1C` [LC-2] yielded an IC50 (hPXR [2]) of 0.66 µM.
For `COc1ccc(Cl)cc1-n1nnc(S(=O)(=O)c2ccc(C(C)C)cc2)c1C` [LC-3], the IC50 (hPXR [2]) was 0.52 µM.
In the case of `COc1ccc(OC)c(-n2nnc(S(=O)(=O)c3ccc(C(C)C)cc3)c2C)c1` [LC-4], the IC50 (hPXR [2]) is reported as 0.63 µM.
Molecule `COc1cc(Cl)c(Cl)cc1-n1nnc(S(=O)(=O)c2ccc(C(C)(C)C)cc2)c1C` [LC-28, 4-((4-(tert-butyl)phenyl)sulfonyl)-1-(4,5-dichloro-2-methoxyphenyl)-5-methyl-1H-1,2,3-triazole] has an IC50 [1, 6] of 14.4 µM.
In the case of `COc1cc(C#N)c(Cl)cc1-n1nnc(S(=O)(=O)c2ccc(C(C)(C)C)cc2)c1C` [LC-36, 4-(4-((4-(tert-butyl)phenyl)sulfonyl)-5-methyl-1H-1,2,3-triazol-1-yl)-2-chloro-5-methoxybenzonitrile], the EC50 (hPXR [2]) is reported as 2.4 µM.
`COc1ccc(OC)c(-n2nnc(S(=O)(=O)c3ccc(C(C)(C)C)cc3)c2Br)c1` [LC-61, 5-bromo-4-((4-(tert-butyl)phenyl)sulfonyl)-1-(2,5-dimethoxyphenyl)-1H-1,2,3-triazole] was tested, and the IC50 [1, 6] was 12.8 µM.
For `COc1ccc(Cl)cc1-n1nnc(S(=O)(=O)c2ccc(C(C)(C)C)cc2)c1Br` [LC-62, 5-bromo-4-((4-(tert-butyl)phenyl)sulfonyl)-1-(5-chloro-2-methoxyphenyl)-1H-1,2,3-triazole], the IC50 [1, 6] was 10.5 µM.
`COC(=O)Cc1c(S(=O)(=O)c2ccc(C(C)(C)C)cc2)nnn1-c1cc(C)ccc1OC` [LC-66, methyl 2-(4-((4-(tert-butyl)phenyl)sulfonyl)-1-(2-methoxy-5-methylphenyl)-1H-1,2,3-triazol-5-yl)acetate] was tested, and the EC50 ([3]; Ag = compound exhibited agonism, read-out: RXRβ (Ag)) was 19.3 µM.
`COc1ccc(OC)c(-c2nc(C)c(S(=O)(=O)c3ccc(C(C)(C)C)cc3)[nH]2)c1` [LC-73, 5-((4-(tert-butyl)phenyl)sulfonyl)-2-(2,5-dimethoxyphenyl)-4-methyl-1H-imidazole] showed an IC50 [4] of 4.4 µM.
With `COc1ccc(Cl)cc1-c1nc(C)c(S(=O)(=O)c2ccc(C(C)(C)C)cc2)n1C` [LC-78, 5-((4-(tert-butyl)phenyl)sulfonyl)-2-(5-chloro-2-methoxyphenyl)-1,4-dimethyl-1H-imidazole] the EC50 (hPXR [5]) was 1.4 µM and the IC50 (HepG2 cells; NA = not active) was 24.4 µM.
In the case of `COc1ccc(O)c(-n2nnc(S(=O)(=O)c3ccc(C(C)(C)C)c(O)c3)c2C)c1` [LC-83, 2-(4-((4-(tert-butyl)-3-hydroxyphenyl)sulfonyl)-5-methyl-1H-1,2,3-triazol-1-yl)-4-methoxyphenol], the IC50 (HepG2 cells) is reported as 16.2 µM and the EC50 (hPXR [2]) is reported as 5 µM.
`COc1ccc(OC)c(-n2nnc(S(=O)(=O)c3ccc(C(C)(C)C)cc3O)c2C)c1` [LC-84, 5-(tert-butyl)-2-((1-(2,5-dimethoxyphenyl)-5-methyl-1H-1,2,3-triazol-4-yl)sulfonyl)phenol] showed an IC50 (HepG2 cells) of 20.9 µM and an EC50 (hPXR [2]) of 3.3 µM.
`Cc1c(S(=O)(=O)c2ccc(C(C)(C)C)cc2)nnn1-c1cc(O)ccc1O` [LC-85, 2-(4-((4-(tert-butyl)phenyl)sulfonyl)-5-methyl-1H-1,2,3-triazol-1-yl)benzene-1,4-diol] gave an IC50 [1, 6] of 12.8 µM, an IC50 ([3]; Anta = compound exhibited antagonism, read-out: RXRβ (Anta)) of 31 µM and an IC50 (hPXR [2]) of 3.9 µM.
For `COc1ccc(O)cc1-n1nnc(S(=O)(=O)c2ccc(C(C)(C)C)cc2)c1C` [LC-87, 3-(4-((4-(tert-butyl)phenyl)sulfonyl)-5-methyl-1H-1,2,3-triazol-1-yl)-4-methoxyphenol], the EC50 (hPXR [2]) was 12 µM.
For `COc1ccc(OC)c(-n2nnc(S(=O)(=O)c3ccc(C(C)(C)C)c(O)c3)c2C)c1` [LC-88, 2-(tert-butyl)-5-((1-(2,5-dimethoxyphenyl)-5-methyl-1H-1,2,3-triazol-4-yl)sulfonyl)phenol], the IC50 (HepG2 cells) was 13 µM and the EC50 (hPXR [2]) was 1.4 µM.
